Calls of active or inactive are those of the source.
How the values were obtained:
[1] = HEK293T cytotoxicity, dose response, cytotoxicity control for miR-122 modulator project, cell-based, inhibitor set, cherry-pick, set 2 (AID 720697); assay type: functional
[2] = HEK293T cytotoxicity, dose response, cytotoxicity control for miR-122 modulator project, cell-based, activator set, cherry-pick (AID 720690); assay type: functional;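 note: HEK293T human cells scored for general mammalian cytotoxicity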
[3] = miR-122 activators in hepatoma reporter cells, dose response, cell-based, Huh7 psiCHECK-miR122, Renilla luciferase, cherry-picked (AID 651956); assay type: functional;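 note: huh7 hepatoma cells stably carrying a psiCHECK-2 miR-122 sensor plasmid; renilla luciferase signal reporting endogenous miR-122 activity after 48 h compound exposure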
Galanin receptor type 3 = Galanin receptor type 3 (Homo sapiens, UniProt O60755); assay: Fluorescence-based cell-based primary high throughput dose response assay to identify antagonists of the Galanin Receptor 3 (GalR3).; assay type: functional
cells = assay type: functional, cell-based; conditions: HEK-CNG
[4] = biological target: Metabotropic glutamate receptor 3 (Rattus norvegicus, UniProt P31422); assay: mGlu3 negative allosteric modulator potency, dose response, HEK/GIRK cells, thallium flux, rat (AID 651839); assay type: functional
[5] = HEK293 cell cytotoxicity, dose response, cytotoxicity control, ATP luminescence, dry powder, Set6 (AID 743142); assay type: functional, cell-based
[6] = A549 cell cytotoxicity, dose response, cytotoxicity control, CellTiter-Glo luminescence, dry powder, set 3 (AID 743146); assay type: functional, cell-based
[7] = MITF: Counter assay: A375 proliferation Measured in Cell-Based System Using Plate Reader - 2084-03_Inhibitor_Dose_DryPowder_Activity_Set8.; assay type: functional; conditions: A-375
[8] = TRPM1 promoter luciferase reporter signal decrease, dose response, MITF inhibitor project, cell-based, SK-MEL-5, dry powder, set 8 (AID 624430); assay type: functional
[9] = MITF Orthogonal Assay: SK-MEL-5 CTG Assay Measured in Cell-Based System Using Plate Reader - 2084-02_Inhibitor_Dose_DryPowder_Activity_Set7.; assay type: functional
[10] = biological target: Protein disulfide-isomerase (Homo sapiens, UniProt P07237); assay: PDI inhibitors, insulin turbidity readout, confirmation, biochemical, dry powder samples, set 2 (AID 652146)
[11] = biological target: T1, Rac GTPase-activating protein 1 (Homo sapiens, UniProt Q9H0H5); assay: MgcRacGAP GTPase-activating activity inhibitors, confirmation, biochemical, ADP Hunter fluorescence, primary and confirmatory (AID 624330); assay type: functional
T1 sequence (Q9H0H5 whole entry): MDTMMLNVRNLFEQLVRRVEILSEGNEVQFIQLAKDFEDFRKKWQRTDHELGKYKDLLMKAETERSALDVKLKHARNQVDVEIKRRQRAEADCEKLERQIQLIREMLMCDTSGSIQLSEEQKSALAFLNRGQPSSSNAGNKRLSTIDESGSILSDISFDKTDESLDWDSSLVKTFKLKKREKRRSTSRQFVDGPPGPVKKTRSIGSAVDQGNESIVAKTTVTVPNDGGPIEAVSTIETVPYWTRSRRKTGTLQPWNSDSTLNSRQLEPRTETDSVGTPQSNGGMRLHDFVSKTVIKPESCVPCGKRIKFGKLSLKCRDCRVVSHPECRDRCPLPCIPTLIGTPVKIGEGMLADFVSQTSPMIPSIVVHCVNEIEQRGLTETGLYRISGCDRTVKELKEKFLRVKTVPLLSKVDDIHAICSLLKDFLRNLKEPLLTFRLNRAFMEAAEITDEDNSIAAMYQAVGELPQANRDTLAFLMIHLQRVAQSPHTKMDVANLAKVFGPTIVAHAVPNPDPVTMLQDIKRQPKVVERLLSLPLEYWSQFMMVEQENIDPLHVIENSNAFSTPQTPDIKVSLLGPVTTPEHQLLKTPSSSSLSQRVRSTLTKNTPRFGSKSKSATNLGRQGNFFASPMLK

[12] = THP-1 cell cytotoxicity, dose response, cytotoxicity control for Vif-APOBEC3G degradation inhibitor project, THP-1 cells (AID 1117359); assay type: functional; conditions: Human immunodeficiency virus 1, THP-1
[13] = CFTR ΔF508 corrector activity in bronchial cells, dose response, human bronchial epithelial cells, plate reader, cherry-pick, two tests (AID 743267); assay type: functional, cell-based
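Throughout, for EC50: target is galanin receptor GalR3 read with a cAMP biosensor in HEK293 cells.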

Sequence of Metabotropic glutamate receptor 3 (P31422 whole entry): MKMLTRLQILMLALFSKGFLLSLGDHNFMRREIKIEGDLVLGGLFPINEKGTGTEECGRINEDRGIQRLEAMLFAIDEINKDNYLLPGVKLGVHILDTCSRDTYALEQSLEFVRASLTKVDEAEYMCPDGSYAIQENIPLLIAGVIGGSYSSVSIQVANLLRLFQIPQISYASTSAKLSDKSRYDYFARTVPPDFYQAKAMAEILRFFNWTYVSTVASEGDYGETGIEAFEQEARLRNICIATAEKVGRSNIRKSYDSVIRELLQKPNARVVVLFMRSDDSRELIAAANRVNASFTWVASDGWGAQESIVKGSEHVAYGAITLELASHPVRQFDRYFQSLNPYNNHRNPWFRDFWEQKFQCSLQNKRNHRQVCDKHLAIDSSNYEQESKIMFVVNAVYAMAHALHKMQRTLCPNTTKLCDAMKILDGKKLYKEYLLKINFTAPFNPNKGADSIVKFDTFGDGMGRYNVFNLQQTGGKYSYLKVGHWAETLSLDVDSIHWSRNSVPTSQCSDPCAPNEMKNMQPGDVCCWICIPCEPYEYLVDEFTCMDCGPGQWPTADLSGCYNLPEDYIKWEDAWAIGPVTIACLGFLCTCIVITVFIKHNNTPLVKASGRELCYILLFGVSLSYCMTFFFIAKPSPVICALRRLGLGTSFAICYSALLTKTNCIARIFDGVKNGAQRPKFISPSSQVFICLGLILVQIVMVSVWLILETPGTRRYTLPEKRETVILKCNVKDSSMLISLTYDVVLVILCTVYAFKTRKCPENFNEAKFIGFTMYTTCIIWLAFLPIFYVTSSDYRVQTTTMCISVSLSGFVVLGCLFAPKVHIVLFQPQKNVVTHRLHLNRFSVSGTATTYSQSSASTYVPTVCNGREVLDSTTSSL
Sequence of Galanin receptor type 3 (O60755 whole entry): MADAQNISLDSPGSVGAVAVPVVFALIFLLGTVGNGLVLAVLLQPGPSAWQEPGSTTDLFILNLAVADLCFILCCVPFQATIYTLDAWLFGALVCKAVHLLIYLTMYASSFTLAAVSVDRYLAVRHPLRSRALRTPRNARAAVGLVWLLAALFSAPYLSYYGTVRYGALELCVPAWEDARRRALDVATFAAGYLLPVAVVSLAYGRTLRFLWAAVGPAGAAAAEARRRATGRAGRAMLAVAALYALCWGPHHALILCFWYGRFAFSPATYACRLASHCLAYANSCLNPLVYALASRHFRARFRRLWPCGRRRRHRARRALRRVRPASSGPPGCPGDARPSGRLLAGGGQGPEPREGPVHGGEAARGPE
Sequence of Protein disulfide-isomerase (P07237 whole entry): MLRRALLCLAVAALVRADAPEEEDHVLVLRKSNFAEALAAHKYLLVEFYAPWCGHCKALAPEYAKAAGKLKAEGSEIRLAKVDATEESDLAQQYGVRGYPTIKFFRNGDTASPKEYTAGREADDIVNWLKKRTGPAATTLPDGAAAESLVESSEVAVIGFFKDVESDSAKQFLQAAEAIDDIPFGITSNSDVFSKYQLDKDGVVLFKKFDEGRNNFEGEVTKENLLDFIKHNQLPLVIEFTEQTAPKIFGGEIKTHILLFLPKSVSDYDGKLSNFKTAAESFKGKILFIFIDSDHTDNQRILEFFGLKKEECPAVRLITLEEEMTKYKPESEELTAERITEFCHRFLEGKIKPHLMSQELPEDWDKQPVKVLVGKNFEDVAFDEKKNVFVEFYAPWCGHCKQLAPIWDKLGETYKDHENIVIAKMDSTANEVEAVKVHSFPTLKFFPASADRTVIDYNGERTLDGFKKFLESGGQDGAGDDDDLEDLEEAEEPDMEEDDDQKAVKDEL

C[C@H](CO)N1C[C@H](C)[C@H](CN(C)CC2CCCCC2)Oc2ccc(NC(=O)Nc3ccc(C(F)(F)F)cc3)cc2C1=O
AC50 [1]: 15.1 µM (active) | AC50 [2]: 17.1 µM (active) | AC50 [3]: 31.5 µM (active)

CC1(CSc2ccccc2)CC(=O)N1 (stereo not given)
IC50 (Galanin receptor type 3): > 29.9 µM (inactive) | EC50 (cells): > 29.9 µM (inactive)

COc1ccc(C#Cc2ccc(C(=O)N3CCC[C@@H](CO)C3)cc2)c(F)c1
IC50 [4]: 4.92 µM

O=C(CCNC(=O)c1cccc(Cl)c1)N[C@@H]1CCCc2ccccc21
AC50 [5]: 9.96 µM (active) | AC50 [6]: > 52 µM (inactive)

CCN1CCN(C2=C(Nc3cccc(Cl)c3)C(=O)c3ccccc3C2=O)CC1
AC50 [7]: 31.7 µM (active) | AC50 [8]: 2.94 µM (active) | AC50 [9]: 10.1 µM (active)

CCOC(=O)C1(CCOC)CCN(Cc2ccc(O)c(Cl)c2)CC1
AC50 [10]: > 30 µM (inactive)

C=CC/N=c1\scc(C)n1/N=C/c1ccc(O)c(O)c1
IC50 [11]: 17.4 µM (active) | CC50 [12]: 19.8 µM (active) | AC50 [13]: 50 µM (active)
